Read-outs that look alike come from different tables or passages of the source.
Legend:
CYP3A2 [1] = target: T1, CYP3A2 (Rattus norvegicus, UniProt P05183); assay: Inhibition of CYP3A2-mediated dexamethasone 6β-hydroxylation in rat liver microsomes (HPLC); details: for inhibition mode of CYP3A2 enzyme activity: Lineweaver–Burk plot, rat liver microsomes; for Vmax for 6β-hydroxylase / Clint (hepatic intrinsic clearance) for 6β-hydroxylase: dexamethasone substrate
T1 sequence (P05183 1-504): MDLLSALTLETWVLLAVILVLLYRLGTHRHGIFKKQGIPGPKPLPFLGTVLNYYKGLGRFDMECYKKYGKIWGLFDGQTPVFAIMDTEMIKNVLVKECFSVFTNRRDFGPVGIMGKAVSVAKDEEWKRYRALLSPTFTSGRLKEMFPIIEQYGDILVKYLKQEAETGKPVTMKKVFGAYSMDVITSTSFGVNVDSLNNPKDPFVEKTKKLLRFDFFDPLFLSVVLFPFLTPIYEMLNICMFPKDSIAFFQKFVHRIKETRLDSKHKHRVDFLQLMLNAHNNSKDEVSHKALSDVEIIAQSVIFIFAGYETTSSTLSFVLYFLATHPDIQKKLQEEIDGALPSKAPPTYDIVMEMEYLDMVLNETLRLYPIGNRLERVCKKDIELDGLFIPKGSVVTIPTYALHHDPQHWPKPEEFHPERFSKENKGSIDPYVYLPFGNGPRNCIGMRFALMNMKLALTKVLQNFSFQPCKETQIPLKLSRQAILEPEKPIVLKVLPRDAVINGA
Experimental: The rates of 6β-hydroxydexamethasone formation were determined using High-Performance Liquid Chromatography (HPLC) technique.
The percentage of organic solvent in the assay was not more than 1% v/v.
The quenched reaction masses were transferred to the new vials and substrate and metabolite were double extracted with ethyl acetate (3 mL) and diethyl ether (3 mL), respectively. The organic extracts were evaporated to dryness. The mobile phase (70% acetonitrile and 30% water, v/v) was used to dissolve the residues. Then, 10 µL of the solution was injected for HPLC analysis.
Analysis of variance (ANOVA) test was also performed (at 0.05 significance level).
Schwarz criterion (SC) and Akaike information criterion (AIC) were acquired from nonlinear regression analysis. IC50 values were calculated by nonlinear regression analysis and GraphPad Prism software was used for this purpose.
The Lineweaver–Burk plot was used to assess the inhibition parameters such as Km, Vmax, and Clint.

[2] = target: fatty acid amide hydrolase; details: hydrolysis of arachidonoylethanolamide; cited from earlier work
cytokine expression = tested on: cytokine expression; parameters: method as in PMID 31286365; details: in vitro; cited from earlier work
[3] = cited from earlier work
trimethadione metabolism = details: short-term administration in rats; cited from earlier work
ATPase = tested on: ATPase; parameters: method as in PMID 2992525; details: in vitro, up to 60 min at pH 6.1 or pH 7.4; cited from earlier work
[4] = parameters: method as in PMID 29752643; details: several daily oral doses of omeprazole 40 mg; cited from earlier work
[5] = tested on: bufuralol 1′-hydroxylation; parameters: method as in PMID 15258107; details: cited from earlier work
CYP3A4 = details: cited from earlier work
CYP3A2 [6] = target: T1, CYP3A2; parameters: The pooled liver microsomes from male rats (Sprague Dawley) were purchased from Merck; tissue Merck; host or cells: pooled liver microsomes from male Sprague Dawley rats; details: previous study; cited from earlier work
COVID-19 = tested on: COVID-19; parameters: method as in PMID 33732750; details: cited from earlier work
[7] = male, Sprague Dawley, rat, microsomes, pH 7.4

| Structure (SMILES) | inhibition mode of CYP3A2 enzyme activity (CYP3A2 [1]) | Vmax for 6β-hydroxylase (CYP3A2 [1]; inhibitor 50 µM) | Vmax for 6β-hydroxylase (CYP3A2 [1]; inhibitor 100 µM) | IC50 (CYP3A2 [1]) [µM] | Ki (CYP3A2 [1]) [µM] | inhibition of CYP3A2 at concentrations lower than 30 µM (CYP3A2 [1]) | Clint (hepatic intrinsic clearance) for 6β-hydroxylase (CYP3A2 [1]; inhibitor 30 µM) | Vmax for 6β-hydroxylase (CYP3A2 [1]; inhibitor 30 µM) | Clint (hepatic intrinsic clearance) for 6β-hydroxylase (CYP3A2 [1]; inhibitor 50 µM) | Clint (hepatic intrinsic clearance) for 6β-hydroxylase (CYP3A2 [1]; inhibitor 100 µM) | other results |
| --- | --- | --- | --- | --- | --- | --- | --- | --- | --- | --- | --- |
| CC(C)Cc1ccc(C(C)C(=O)O)cc1 (stereo not drawn) [Ibuprofen, ibuprofen] | non-competitive | 0.0116 ± 0.608 × 10^−3 µM^−1∙min^−1 | 0.0099 ± 0.040 × 10^−3 µM^−1∙min^−1 |  |  |  |  |  |  |  | Vmax for 6β-hydroxylase (CYP3A2 [1]; inhibitor 200 µM): 0.0092 ± 0.100 × 10^−3 µM^−1∙min^−1; inhibition at 40 min, 50 µM (CYP3A2 [1]; [7]): 23 ± 4.34%; inhibition at 40 min, 100 µM (CYP3A2 [1]; [7]): 34.73 ± 0.336%; inhibition at 40 min, 200 µM (CYP3A2 [1]; [7]): 38.9 ± 0.476%; IC50 [2]: 270 µM; effect on cytokine expression (cytokine expression): no inhibitory effect; amounts found in plasma [3]: 49 to 242 µM; Cmax ([3]; read-out: peak plasma concentrations (Cmax), after two single doses of 200 mg from two different ibuprofen preparations): 110 to 150 µM; effect on trimethadione metabolism (trimethadione metabolism): did not affect |
| COc1ccc2[nH]c([S+]([O-])Cc3ncc(C)c(OC)c3C)nc2c1 (stereo not drawn) [Omeprazole, omeprazole] | uncompetitive | 0.0062 ± 0.473 × 10^−3 µM^−1∙min^−1 | 0.0042 ± 0.058 × 10^−3 µM^−1∙min^−1 | 78.35 ± 0.46 | 39.18 ± 0.23 | No inhibition | 0.0009 ± 0.091 × 10^−3 µM^−2∙min^−1 | 0.0080 ± 0.346 × 10^−3 µM^−1∙min^−1 | 0.0010 ± 0.093 × 10^−3 µM^−2∙min^−1 | 0.0011 ± 0.066 × 10^−3 µM^−2∙min^−1 | inhibition of the ATPase activity (ATPase): no substantial inhibition; effect on the pharmacokinetics of roxadustat [4]: no substantial effect; IC50 [5]: > 200 µM; therapeutic plasma concentration ([3]; no reference given): 1.1 to 2.0 µM; Cmax ([3]; several daily oral doses of 40 mg): 1207 ng/mL |
| CCC(CC)COC(=O)[C@H](C)N[P@](=O)(OC[C@H]1O[C@@](C#N)(c2ccc3c(N)ncnn23)[C@H](O)[C@@H]1O)Oc1ccccc1 [Remdesivir, remdesivir] | mixed | 0.0146 ± 0.586 × 10^−3 µM^−1∙min^−1 | 0.0132 ± 0.153 × 10^−3 µM^−1∙min^−1 | 45.007 ± 0.016 | 22.504 ± 0.008 | No inhibition | 0.0006 ± 0.011 × 10^−3 µM^−2∙min^−1 | 0.0122 ± 0.306 × 10^−3 µM^−1∙min^−1 | 0.0006 ± 0.018 × 10^−3 µM^−2∙min^−1 | 0.0010 ± 0.025 × 10^−3 µM^−2∙min^−1 | plasma concentration range ([3]; after a single dose of 3–225 mg): 0.1 to 7.3 µM; inhibition of CYP3A4 (CYP3A4): weak inhibitor |
| CC(=O)Oc1ccccc1C(=O)O [aspirin] |  |  |  |  |  |  |  |  |  |  | inhibition of CYP3A2 isoenzyme activity (CYP3A2 [6]): weak competitive inhibition |
| C[C@@H]1C[C@H]2[C@@H]3CCC4=CC(=O)C=C[C@]4(C)[C@@]3(F)[C@@H](O)C[C@]2(C)[C@@]1(O)C(=O)CO [dexamethasone] |  |  |  |  |  |  |  |  |  |  | reduction of death rate (COVID-19; nonventilated patients with supplemental oxygen): 20%; reduction of death rate (COVID-19; ventilated intensive care unit (ICU) patients): 35% |

— article PMC9000592 (Molecules, 2022)
